{
  "source": "patent US8791064B2",
  "about": "“Beta-lactoglobulin-polysaccharide nanoparticles for hydrophobic bioactive compounds” (Technion Research and Development Foundation Ltd., priority 2008, dated 2014)",
  "key": {"[1]": {"conditions": "cited from earlier work; for pI of β-lactoglobulin: literature value (Jameson et al., 2002)"}, "[2]": {"assay": "Partition of vitamin D2 between nanocomplex pellet and serum (ultracentrifugation, RP-HPLC)", "type": "physicochemical", "method": "To evaluate the encapsulation of the vitamin within the nanoparticles, the partition of the vitamin between the particles and the serum was studied. For this purpose, an ultra centrifuge (15,000×g) was used to separate the nanocomplexes (pellet) from the serum (supernatant), and the concentration of vitamin D2 in the pellet was compared to that in the serum. Vitamin content of particles and serum was analyzed by solvent extraction followed by reversed phase HPLC, according to the method described in Semo et al., 2007, Food Hydrocolloids 21:936. […] Therefore, vitamin concentration in the nanoparticle pellet was 55 times higher than vitamin concentration in the serum, and 5.7 times higher than the initial concentration of the vitamin in the dispersion (13.5 μg mL^−1)."}, "[3]": {"assay": "Vitamin D2 accelerated shelf-life stress test at 30° C.", "type": "physicochemical", "conditions": "pH 4.25, 30° C., 125 hours", "method": "FIG. 7: Effect of encapsulation on stability of vitamin D during an accelerated shelf-life stress test at pH 4.25: samples were stored at 30° C. in closed vials containing 10 mL of solution and 10 mL of air, for a period of 125 hours: (▪) VD2-loaded β-lactoglobulin) (▴) complexes of VD2-β-lactoglobulin-pectin (pH 4.25). (♦) control of unprotected VD2 in water."}, "[4]": {"assay": "Electrophoretic mobility / zeta potential", "type": "physicochemical", "text": "Four criteria were used in order to evaluate the β-lactoglobulin-polysaccharide nanocomplexes and find the conditions (pH and ratio) which yield transparent suspensions containing small and stable nanoparticles: Sedimentation—Qualitative observation of the solutions in glass vials, following overnight equilibration at room temperature; Turbidity—Measured by an Ultrospec 3000 spectrophotometer (GE Healthcare, Life Sciences, UK), at 600 nm using 1 cm path cuvettes: Samples were vortexed prior to analysis; Electrophoretic mobility (EM or μe)—Measured using a zeta potential/particle size analyzer NICOMP™ 380 (Particle Sizing Systems Ltd. Santa Barbara, Calif., Agilent Technologies Inc., USA). The EM was measured under a 3 V/cm e-field at 25° C.; and Particle size—measured by Dynamic Light Scattering using the NICOMP™380 at 23° C. using 0.933 cp for the viscosity of the medium.\nThe stability of these colloidal systems was studied by measuring the electrophoretic mobility (EM) of the colloidal particles (FIGS. 12 and 13). Because the ionic strength of the studied systems was very low, and the particles are both very small and “soft” (being aggregates of oppositely charged polymers), the precise calculation of zeta potential from EM is not possible, due to the complexity of the system, and the limitations of currently available theoretical models. […]"}},
  "note": "Where “and” joins values, the source holds several entries; their conditions need not be identical. Equal entries are not always repeated. Where two headings read alike, the source gives them in different places.",
  "data": [
    {"compound": "CC/C=C\\C/C=C\\C/C=C\\C/C=C\\C/C=C\\C/C=C\\CCC(=O)O", "note": "[DHA, docosahexaenoic acid]", "values": [
      {"measurement": "pKa of DHA", "setting": "[1]; Namani et al., 2007", "result": "≈ 8.5"}
    ]},
    {"compound": "C=C1CC[C@H](O)C/C1=C/C=C1\\CCC[C@]2(C)[C@@H]([C@H](C)/C=C/[C@H](C)C(C)C)CC[C@@H]12", "note": "[Vitamin D2, ergocalciferol]", "values": [
      {"measurement": "vitamin concentration in the nanoparticle pellet relative to the initial concentration in the dispersion", "setting": "[2]; initial concentration 13.5 μg mL^−1", "result": 5.7, "unit": "times higher"},
      {"measurement": "Vitamin D2 concentration in the supernatant (serum)", "setting": "[2]; β-lactoglobulin-pectin nanocomplex dispersion centrifuged at 15,000×g", "result": 1.4, "unit": "µg/mL"},
      {"measurement": "vitamin concentration in the nanoparticle pellet relative to the serum", "setting": "[2]; β-lactoglobulin-pectin nanocomplexes", "result": 55, "unit": "times higher"},
      {"measurement": "Vitamin D2 concentration in the pellet", "setting": "[2]; β-lactoglobulin-pectin nanocomplexes separated at 15,000×g, initial concentration 13.5 μg mL^−1", "result": 77.26, "unit": "µg/mL"},
      {"measurement": "degradation of the vitamin (ranking)", "setting": "[3]; unprotected control, vitamin D dispersion in water", "result": "fastest degradation rate"},
      {"measurement": "degradation of the vitamin (ranking)", "setting": "[3]; vitamin D2 in β-lactoglobulin-pectin nanocomplexes, closed vials with 10 mL air", "result": "slowest degradation"}
    ]},
    {"compound": "β-lactoglobulin: bovine β-lactoglobulin isolate (Davisco), major whey protein, 18.4 kDa", "values": [
      {"measurement": "pI of β-lactoglobulin", "setting": "[1]", "result": "5.18 and 5.1"},
      {"measurement": "pI of β-lactoglobulin", "setting": "[1]; listed as lactoglobulin", "result": 5.18},
      {"measurement": "isoelectric point from electrophoretic mobility versus pH", "setting": "[4]; 0.05% β-lactoglobulin alone, 25° C., low ionic strength (FIG. 13)", "result": 5.2},
      {"measurement": "zeta potential", "setting": "[4]; pure β-lactoglobulin 0.05% wt, no pectin, pH 3.5 to 4.5", "result": "+6 mV"}
    ]}
  ]
}
